Results on five compounds are retold here after patent US8685962B2 (priority 2007, dated 2014).

One assay has as its system H1299 lung cancer cells. In words: Survival of H1299 cells exposed to cigarette smoke with/without saliva. It counts as cell-based, human. As to conditions: for effect on survival of H1299 cells exposed to CS (in words): CS + 30% saliva. How it is done: Four control groups, not exposed to tobacco smoke (referred to herein as TS or alternatively, as CS, standing for “cigarette smoke”) were compared to four study groups (similar groups which were also exposed to CS), as detailed hereinafter. The four control groups included the following: a group where the cells were incubated in medium alone and exposed to air (M), a group where the cells were incubated in medium supplemented with whole saliva and exposed to air (M+saliva), a group where the cells where incubated in medium and exposed to CS (M+CS) and a group where the cells were incubated in medium supplemented with saliva and exposed to CS (M+saliva+CS).
During smoke exposure, the cells were put into a smoking sealed chamber (33.5 cm^3) with CS pressure of 0.3 Bar. Control cells were subjected to the same procedures, but exposed only to fresh air. Cells were exposed to CS for one “puff” every 20 minutes for a 2 hours (120 minutes) period (unless indicated otherwise). Cells exposed to air served as control. Cells were used when it becomes confluent and the medium (with/without saliva) volume was compatibly to the dish in use.
In order to examine the possible effect of TSPO receptor ligands on the survival rate of cells exposed to both CS and saliva, the benzodiazepine TSPO ligand, diazepam, was added to cells prior to exposing the cells to CS+30% saliva.

For the next assay, the target named is T1, human salivary TSPO (Homo sapiens, UniProt P30536).
T1 construct: from tissue; host or cells: cells pelleted from human saliva samples (volunteers; smokers and non-smokers)
T1 sequence (P30536 whole entry): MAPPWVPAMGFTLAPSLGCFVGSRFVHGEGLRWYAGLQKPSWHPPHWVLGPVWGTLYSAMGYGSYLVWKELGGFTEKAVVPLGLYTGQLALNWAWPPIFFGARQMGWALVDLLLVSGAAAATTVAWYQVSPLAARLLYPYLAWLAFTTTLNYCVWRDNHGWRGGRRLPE
Briefly: Competition of TSPO ligands with [3H]PK11195 binding in human saliva. The settings on record: for binding affinity lower than that of PK11195: relative to PK11195. How it is done:
(§1) After 80 minutes of incubation at 4° C., the samples were filtered through Whatman CF/C filters using a vacuum system, washed three times with 4 ml of 5 mM ice-cold phosphate buffer and placed in vials containing 4 ml of Opti-Fluor. Radioactivity was counted after 12 hours with a liquid scintillation analyzer. Specific binding was obtained by subtracting non specific binding from total binding.

The target of assay [1] is T2, TSPO receptors in SCC-25 cell line (Homo sapiens, UniProt P30536).
T2 construct: endogenous in cells; host or cells: SCC-25
T2 sequence (P30536 whole entry): as above
Briefly: Displacement of [3H]PK11195 from TSPO receptors in SCC-25 cells. It counts as binding. As to conditions: for potency in displacing [3H]PK11195, fold lower than PK11195: SCC-25 membrane, relative to PK11195. How it is done: (§2) Cells were scraped from the culture dishes, washed with phosphate-buffered saline (PBS), and centrifuged at 1200 g for 10 minutes. Then the cell pellets were re-suspended in 1 mL of 50 mM phosphate buffer, pH 7.4, and centrifuged at 1200 g for 10 minutes. […] After incubation for 80 minutes at room temperature, samples were filtered under vacuum over Whatman GF/B filters and washed three times with phosphate buffer. Filters were placed in vials containing 4 mL of Opti-Fluor (Packard, Groningen, The Netherlands) and counted for radioactivity in a scintillation counter after 12 hours. The maximal number of binding sites (Bmax) and equilibrium dissociation constants were calculated from the saturation curve of [^3H]
(Displacement assays read how much labelled ligand stays bound in the presence of the test substance.)

For assay [2], the target named is T3, TSPO receptors in SCC-15 cell line (Homo sapiens, UniProt P30536).
T3 construct: endogenous in cells; host or cells: SCC-15
T3 sequence (P30536 whole entry): as above
Briefly: Displacement of [3H]PK11195 from TSPO receptors in SCC-15 cells. The class given is binding. On the procedure:
as §2

Assay [3] deals with T4, TSPO receptor in saliva (Homo sapiens, UniProt P30536).
T4 construct: from tissue; host or cells: cells pelleted from human saliva samples (volunteers; smokers and non-smokers)
T4 sequence (P30536 whole entry): as above
Briefly: [3H]PK11195 saturation binding with Scatchard analysis in human saliva. As to conditions: n=10. On the procedure:
as §1

Assay [4] deals with T5, TSPO receptors in human tongue cancer cell line SCC-25 (Homo sapiens, UniProt P30536).
T5 construct: Cells were scraped from the culture dishes, washed with phosphate-buffered saline (PBS), and centrifuged; endogenous in cells; host or cells: SCC-25
T5 sequence (P30536 whole entry): as above
In words: [3H]PK11195 saturation binding (Scatchard) in SCC-25 cells. On the procedure: as §2

Assay [5] concerns the target T6, TSPO receptors in human tongue cancer cell line SCC-15 (Homo sapiens, UniProt P30536).
T6 construct: endogenous in cells; host or cells: SCC-15
Briefly: [3H]PK11195 saturation binding (Scatchard) in SCC-15 cells. How it is done: as §2

Assay [6] has as its target T7, TSPO receptors in H1299 lung cancer cells (Homo sapiens, UniProt P30536).
T7 construct: Cells were scraped from the culture dishes, washed with phosphate-buffered saline (PBS), and centrifuged; endogenous in cells; host or cells: H1299
In words: [3H]PK11195 saturation binding (Scatchard) in H1299 cells. How it is done: as §2

Assay [7] concerns the target T4, TSPO receptor in saliva. In words: [3H]PK11195 binding in saliva from heavy smokers and non-smokers. The settings on record: for mean TSPO binding: 6 nM ligand. On the procedure:
as §1
The effect of long term CS-exposure on the salivary TSPO, of heavy smokers, was investigated. Saliva samples were collected from heavy smokers (smokers group) and from a control group of non-smoking volunteers (control group), and the total protein expression level as well as TSPO binding capacity was evaluated as follows.
The mean TSPO binding was calculated and found to be 53% lower in the smokers group, as compared to the control group (694±264; n=9 and 1,480±1,157; n=16, respectively; see, FIG. 7b). This statistically significant reduction (p<0.05) further supports the results obtained for the in-vitro exposure of saliva cells to CS (detailed above), and point to a CS-related reduced TSPO receptor binding capacity.

[8] abbreviates: 10^-8 M, medium + 30% saliva, CS 120 minutes.
Where [9] appears, read: 50% inhibition of [3H]PK11195 binding, SCC-15, read-out: IC50.
Where [10] appears, read: inhibition of [3H]PK11195 binding, human saliva, four independent experiments, read-out: Ki.
[11] abbreviates: 50% inhibition of [3H]PK11195 binding, SCC-25, read-out: IC50.

Like-named read-outs stand apart in the source and are kept apart here.

T6 sequence (P30536 whole entry): as above
T7 sequence (P30536 whole entry): as above

For the compound `O=C1CN=C(c2ccccc2Cl)c2cc([N+](=O)[O-])ccc2N1` [Clonazepam], the “effect on survival of H1299 cells exposed to CS (in words)” value with H1299 lung cancer cells (10^-7 M) is “No significant increase in survival levels”; in the assay with H1299 lung cancer cells (10^-7 M, listed as clonazepam) it was “not significantly altered”; in the assay with H1299 lung cancer cells (10^-8 M) it was “did not increase the survival level”. In addition, the “decrease of cells survival” value in the assay on H1299 lung cancer cells (setting [8]) came to 10.65%. On human salivary TSPO (human saliva), the “affinity to TSPO (in words)” value is on record as “negligible affinity”. In [1] (SCC-25), the “affinity for TSPO (in words)” value is “negligible affinity”.

Take `CN1C(=O)CN=C(c2ccccc2)c2cc(Cl)ccc21` [Diazepam]: the “effect on survival of H1299 cells exposed to CS (in words)” value with H1299 lung cancer cells (10^-7 M) and with H1299 lung cancer cells (10^-8 M) was “significantly increased” in each case. For the same compound, the “increase of cell survival” value came to 16% with H1299 lung cancer cells (10^-7 M, medium + 30% saliva, CS 120 minutes) and 17.4% in the assay on H1299 lung cancer cells (setting [8]). Moreover, the 50% inhibitory concentration (IC50) in [2] amounted to 14.1 ± 15.2 µM; in assay [1], 14.2 ± 5.72 µM. Also, the Ki on human salivary TSPO amounted to 4.5 µM. For the same compound, the “binding affinity lower than that of PK11195” value on human salivary TSPO (human saliva) is “three orders of magnitude”. In assay [1], the “potency in displacing [3H]PK11195, fold lower than PK11195” value (from here on “potency … fold lower than PK11195”) came out at 1580 times.

For the compound `CCCCCCN(CCCCCC)C(=O)Cc1c(-c2ccc(F)cc2)[nH]c2ccccc12` [FGIN-1-27], the IC50 in assay [2] (setting [9]) was 0.164 µM; in assay [1] (setting [11]), 0.152 ± 0.019 µM. In addition, the “binding affinity lower than that of PK11195” value on human salivary TSPO (human saliva) is “two orders of magnitude”. On human salivary TSPO (setting [10]), the Ki worked out at 0.15 µM. For the same compound, the “potency … fold lower than PK11195” value in assay [1] turned out to be 17 times.

`CN1C(=O)CN=C(c2ccc(Cl)cc2)c2cc(Cl)ccc21` [Ro5-4864, 4-chlorodiazepam]: the IC50 was determined as 2.07 ± 1.55 µM in assay [2] (setting [9]) and 0.666 ± 0.036 µM in assay [1] (setting [11]). Moreover, the “binding affinity lower than that of PK11195” value on human salivary TSPO (human saliva) is listed as “two orders of magnitude”. In addition, the Ki on human salivary TSPO (setting [10]) came out at 0.5 µM. Further, the “potency … fold lower than PK11195” value in [1] worked out at 74 times.

Regarding `CCC(C)N(C)C(=O)c1cc2ccccc2c(-c2ccccc2Cl)n1` (stereo not shown) [[^3H]PK11195], the figures for the “Bmax (maximal binding capacity)” value (on TSPO receptor in saliva [3]; in [4]) were 6,471±1,584 fmol/mg protein and 3133±643 fmoles/mg protein, respectively. For the same compound, the entries for the “non-specific binding as part of total binding” value in assay [4] and in assay [5] were “a third” and 25±3.2%, respectively. In assay [5], this compound displayed a Bmax of 6956±5492 fmoles/mg protein. The “maximum amount of specifically bound ligand (Bmax)” value in assay [6] is 3274±787 pmol/mg of protein. For the same compound, the “mean TSPO binding” value on TSPO receptor in saliva [7] (control group (non-smokers), n=16) is 1,480±1,157; on TSPO receptor in saliva [7] (smokers group, n=9), 694±264. The “mean TSPO binding lower in smokers than control group” value on TSPO receptor in saliva [7] (smokers vs control group) amounted to 53%.

One may read the IC50 as the concentration at which inhibition is half-maximal. As a reminder, the Ki is the equilibrium dissociation constant of an inhibitor or competing ligand from its target.
